Experimental data reported in paper doi:10.1101/2025.01.28.635346v1 (bioRxiv, 2025).
Bridge positions count the residues as written; N and C are the ends. Peptide text beside a SMILES is read from it.

Assays:
HTR1A = biological target: T1, HTR1A (Homo sapiens, UniProt P08908); assay: Safetyscan47 GPCR cAMP, Agonist; type: cell-based
T1 sequence (P08908 1-422): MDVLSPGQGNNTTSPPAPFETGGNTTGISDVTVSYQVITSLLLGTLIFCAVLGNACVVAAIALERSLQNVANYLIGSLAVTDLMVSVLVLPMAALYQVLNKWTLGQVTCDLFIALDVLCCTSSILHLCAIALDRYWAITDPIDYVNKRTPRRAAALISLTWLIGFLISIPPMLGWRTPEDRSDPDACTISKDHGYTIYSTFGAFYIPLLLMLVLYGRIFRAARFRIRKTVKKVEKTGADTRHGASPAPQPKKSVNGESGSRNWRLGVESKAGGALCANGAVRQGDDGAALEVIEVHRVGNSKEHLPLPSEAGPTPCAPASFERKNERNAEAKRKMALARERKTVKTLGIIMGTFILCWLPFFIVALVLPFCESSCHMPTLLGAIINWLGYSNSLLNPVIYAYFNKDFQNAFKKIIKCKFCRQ

[1] = Pharmacokinetics in female Balb/c mice; type: in vivo, mouse
AChE = AChE (Homo sapiens, UniProt P22303); assay: Safetyscan47 Non-Kinase Enzymes Enzymatic, Inhibitor; type: biochemical
integrin α5β1 = integrin α5β1 (Homo sapiens, UniProt P05556+P08648); assay: ELISA competition assay, integrin α5β1; type: binding
SERT = SERT (Homo sapiens, UniProt P31645); assay: Safetyscan47 Transporter, Blocker; type: cell-based
ADRB1 = ADRB1 (Homo sapiens, UniProt P08588); assay: Safetyscan47 GPCR cAMP, Agonist; type: cell-based
[2] = Plasma protein binding, rapid equilibrium dialysis, mouse plasma; type: in vitro ADME
OPRM1 = OPRM1 (Homo sapiens, UniProt P35372); assay: Safetyscan47 GPCR cAMP, Antagonist; type: cell-based
HTR1B = HTR1B (Homo sapiens, UniProt P28222); assay: Safetyscan47 GPCR cAMP, Antagonist; type: cell-based
integrin αvβ3 = integrin αvβ3 (Homo sapiens, UniProt P05106+P06756); assay: ELISA competition assay, integrin αvβ3; type: binding
KvLQT1/minK = KvLQT1/minK (Homo sapiens, UniProt P15382+P51787); assay: Safetyscan47 Ion Channel, Blocker; type: cell-based
HRH1 = HRH1 (Homo sapiens, UniProt P35367); assay: Safetyscan47 GPCR Calcium Flux, Agonist; type: cell-based
HRH2 = HRH2 (Homo sapiens, UniProt P25021); assay: Safetyscan47 GPCR cAMP, Agonist; type: cell-based
hERG = hERG (Homo sapiens, UniProt Q12809); assay: Safetyscan47 Ion Channel, Blocker; type: cell-based
CNR2 = CNR2 (Homo sapiens, UniProt P34972); assay: Safetyscan47 GPCR cAMP, Agonist; type: cell-based
[3] = IP 30 mg/kg, mouse, animal 11F031
[4] = IP 30 mg/kg, mouse, animal 11F032
[5] = IP 30 mg/kg, mouse, animal 11F033
[6] = Table 3SA: IP 30 mg/kg, Mean N=2
[7] = female, Balb/c, mouse, plasma, ip, 30 mg/kg

Question: For `CC[C@H](C)[C@H](NC(=O)[C@H](CC(C)C)NC(=O)[C@H](CC(=O)O)NC(=O)CNC(=O)[C@H](CCCNC(=N)N)NC(=O)[C@@H](NC(=O)[C@H](Cc1ccccc1)NC(=O)[C@H](Cc1ccc(O)cc1)NC(=O)[C@@H]1CCC(=O)NCC(=O)NCC(=O)N[C@@H](CCCNC(=N)N)C(=O)NCC(=O)N[C@@H](Cc2c[nH]cn2)C(=O)N[C@@H](C(C)C)C(=O)N2CCC[C@H]2C(=O)N1)C(C)C)C(=O)N[C@@H](CO)C(=O)N[C@@H](Cc1ccccc1)C(=O)N[C@@H](Cc1ccc(O)cc1)C(=O)N[C@@H](CCCCN)C(=O)O` [lassotide 36] (GGRGHVPEYFVRGDLISFYK-OH; lactam N-8), which EC50 (HTR1A) is on record?
Answer: > 45 µM

Question: What about the Emax (HTR1A; read-out: Max Response) of the same molecule?
Answer: 0%

Question: And the AUCINF [1, 3]?
Answer: 64500

Question: And the AUClast [1, 3]?
Answer: 64500

Question: What about the CL/F [1, 3] of the same molecule?
Answer: 7.75

Question: And the Cmax [1, 3]?
Answer: 21000

Question: What about the Tmax [1, 3] of the same molecule?
Answer: 2.0

Question: What about the Vz/F [1, 3] of the same molecule?
Answer: 363

Question: And the t1/2 [1, 3]?
Answer: 0.54

Question: What about the AUCINF [1, 4] of the same molecule?
Answer: 71700

Question: And the AUClast [1, 4]?
Answer: 69400

Question: What about the CL/F [1, 4] of the same molecule?
Answer: 6.97

Question: And the Cmax [1, 4]?
Answer: 27300

Question: What about the Tmax [1, 4] of the same molecule?
Answer: 1.0

Question: And the Vz/F [1, 4]?
Answer: 389

Question: And the t1/2 [1, 4]?
Answer: 0.64

Question: And the AUClast [1, 5]?
Answer: 885

Question: And the Cmax [1, 5]?
Answer: 10600

Question: What about the Tmax [1, 5] of the same molecule?
Answer: 0.17

Question: And the Vz ([1]; Mouse, 30 mg/kg IP, mean)?
Answer: 0.4 L/kg

Question: And the AUCINF [1, 6]?
Answer: 68100

Question: And the Vz/F [1, 6]?
Answer: 376

Question: And the AUC(0-t) [1, 7]?
Answer: 44900 ng·h/mL

Question: And the CL/F [1, 7]?
Answer: 7.36 mL/min/kg

Question: What about the Cmax [1, 7] of the same molecule?
Answer: 19600 ng/mL

Question: And the Tmax [1, 7]?
Answer: 63.6 min

Question: And the half-life [1, 7]?
Answer: 35.5 min

Question: And the IC50 (AChE)?
Answer: > 45 µM

Question: What about the Emax (AChE; read-out: Max Response) of the same molecule?
Answer: 0%

Question: What about the IC50 (integrin α5β1) of the same molecule?
Answer: 2.35 µM

Question: And the IC50 (SERT)?
Answer: > 45 µM

Question: And the Emax (SERT; read-out: Max Response)?
Answer: 17.5%

Question: What about the EC50 (ADRB1) of the same molecule?
Answer: > 45 µM

Question: What about the Emax (ADRB1; read-out: Max Response) of the same molecule?
Answer: 0%

Question: And the “Plasma protein binding, %Recovery” value ([2]; mouse plasma, RED, 2 μM, 4 h, 37°C)?
Answer: 91%

Question: What about the fraction unbound at 4 h, 2 μM ([2]; mouse, plasma, pH 7.4) of the same molecule?
Answer: 0.222

Question: And the IC50 (OPRM1)?
Answer: > 45 µM

Question: What about the Emax (OPRM1; OPRM1, read-out: Max Response) of the same molecule?
Answer: 0%

Question: What about the IC50 (HTR1B) of the same molecule?
Answer: > 45 µM

Question: What about the Emax (HTR1B; read-out: Max Response) of the same molecule?
Answer: 0%

Question: And the IC50 (integrin αvβ3)?
Answer: 0.343 µM

Question: And the IC50 (KvLQT1/minK)?
Answer: > 45 µM

Question: What about the Emax (KvLQT1/minK; read-out: Max Response) of the same molecule?
Answer: 1.8%

Question: What about the EC50 (HRH1) of the same molecule?
Answer: > 45 µM

Question: And the Emax (HRH1; read-out: Max Response)?
Answer: 2.03%

Question: And the EC50 (HRH2)?
Answer: > 45 µM

Question: What about the Emax (HRH2; read-out: Max Response) of the same molecule?
Answer: 0%

Question: And the IC50 (hERG)?
Answer: > 45 µM

Question: What about the Emax (hERG; human) of the same molecule?
Answer: 5.06%

Question: And the EC50 (CNR2)?
Answer: > 45 µM

Question: And the Emax (CNR2; read-out: Max Response)?
Answer: 6.08%
